In patent US20160039767A1, “PYRAZOLE DERIVATIVES AS PRMT1 INHIBITORS AND USES THEREOF” (EPIZYME, INC., priority 2013, published 2016):
Where two headings read alike, the source gives them in different places.

Legend:
RKO cells = experiment: RKO Methylation Assay (In Cell Western for mono-methyl arginine and DNA content); type: cell-based; conditions: Homo sapiens
Text: RKO adherent cells were purchased from ATCC (American Type Culture Collection), Manassas, Va., USA. DMEM/Glutamax medium, penicillin-streptomycin, heat inactivated fetal bovine serum, 0.05% trypsin and D-PBS were purchased from Life Technologies, Grand Island, N.Y., USA. Odyssey blocking buffer, 800CW goat anti-rabbit IgG (H+L) antibody, and Licor Odyssey infrared scanner were purchased from Licor Biosciences, Lincoln, Nebr., USA. Mono-methyl arginine antibody was purchased from Cell Signaling Technology, Danvers, Mass., USA. Methanol was purchased from VWR, Franklin, Mass., USA. 10% Tween 20 was purchased from KPL, Inc., Gaithersburg, Md., USA. DRAQ5 was purchased from Biostatus Limited, Leicestershire, UK.
RKO adherent cells were maintained in growth medium (DMEM/Glutamax medium supplemented with 10% v/v heat inactivated fetal bovine serum and 100 units/mL penicillin-streptomycin) and cultured at 37° C. under 5% CO2.
Cell Treatment, in Cell Western (ICW) for Detection of Mono-Methyl Arginine and DNA Content.
Compound (100 nL) from a 96-well source plate was added directly to 384 well cell plate. Plates were incubated at 37° C., 5% CO2 for 72 hours. After three days of incubation, plates were brought to room temperature outside of the incubator for ten minutes and blotted on paper towels to remove cell media. 50 μL of ice cold 100% methanol was added directly to each well and incubated for 30 min at room temperature. After 30 min, plates were transferred to a Biotek EL406 plate washer and washed 2 times with 100 μL per well of wash buffer (1×PBS). Next 60 μL per well of Odyssey blocking buffer (Odyssey Buffer with 0.1% Tween 20 (v/v)) were added to each plate and incubated 1 hour at room temperature. Blocking buffer was removed and 20 μL per well of primary antibody was added (mono-methyl arginine diluted 1:200 in Odyssey buffer with 0.1% Tween 20 (v/v)) and plates were incubated overnight (16 hours) at 4° C. Plates were washed 5 times with 100 µL per well of wash buffer. Next 20 μL per well of secondary antibody was added (1:200 800CW goat anti-rabbit IgG (H+L) antibody, 1:1000 DRAQ5 (Biostatus limited) in Odyssey buffer with 0.1% Tween 20 (v/v)) and incubated for 1 hour at room temperature. The plates were washed 5 times with 100 μL per well wash buffer then 2 times with 100 μL per well of water. Plates were allowed to dry at room temperature then imaged on the Licor Odyssey machine which measures integrated intensity at 700 nm and 800 nm wavelengths. Both 700 and 800 channels were scanned.
First, the ratio for each well was determined by:
Each plate included fourteen control wells of DMSO only treatment (minimum activation) as well as fourteen control wells for maximum activation treated with 20 μM of a reference compound. The average of the ratio values for each control type was calculated and used to determine the percent activation for each test well in the plate. Reference compound was serially diluted three-fold in DMSO for a total of nine test concentrations, beginning at 20 μM. Percent activation was determined and EC30 curves were generated using triplicate wells per concentration of compound.

PRMT1 = biological target: T1, PRMT1 (Homo sapiens, UniProt Q99873); experiment: PRMT1 Biochemical Assay (3H-SAM Flashplate, histone H4 peptide substrate); conditions: Biochemical IC50 (Numerical, μM) PRMT1, single experiment or average of multiple experiments, Table 2a
T1 construct: GST-tagged PRMT1; made in house; host or cells: High Five insect cells (baculovirus, pFastBacI)
Text: S-adenosylmethionine (SAM), S-adenosylhomocysteine (SAH), bicine, Tween20, dimethylsulfoxide (DMSO), bovine skin gelatin (BSG), and Tris(2-carboxyethyl)phosphine hydrochloride solution (TCEP) were purchased from Sigma-Aldrich at the highest level of purity possible. ^3H-SAM was purchase from American Radiolabeled Chemicals with a specific activity of 80 Ci/mmol. 384-well streptavidin Flashplates were purchased from PerkinElmer.
Recombinant baculovirus were generated according to Bac-to-Bac kit instructions (Life Technologies). Protein over-expression was accomplished by infecting exponentially growing High Five insect cell culture at 1.5×10^6 cell/ml with 1:100 ratio of virus. Infections were carried out at 27° C. for 48 hours, harvested by centrifugation, and stored at −80° C. for purification.
GST-tagged PRMT1 was eluted with 50 mM Tris, 2 mM glutathione, pH 7.8, dialysed in buffer A and concentrated to 1 mg/mL.
General Procedure for PRMT1 Enzyme Assays on Peptide Substrates.
The assays were all performed in a buffer consisting of 20 mM Bicine (pH=7.6), 1 mM TCEP, 0.005% BSG, and 0.002% Tween 20, prepared on the day of use. […] DMSO (1 ul) was added to Columns 11, 12, 23, 24, rows A-H for the maximum signal control and 1 ul of SAH, a known product and inhibitor of PRMT1, was added to columns 11, 12, 23, 24, rows I-P for the minimum signal control. A cocktail (40 ul) containing the PRMT1 enzyme was added by Multidrop Combi (Thermo-Fisher). The compounds were allowed to incubate with PRMT1 for 30 min at room temperature, then a cocktail (10 ul) containing SAM and peptide was added to initiate the reaction (final volume=51 ul). […] The assays were stopped by the addition of non-radiolabeled SAM (10 ul) to a final concentration of 300 uM, which dilutes the ^3H-SAM to a level where its incorporation into the peptide substrate is no longer detectable. […] The plates were then read in a PerkinElmer TopCount plate reader to measure the quantity of ^3H-labeled peptide bound to the Flashplate surface, measured as disintegrations per minute (dpm) or alternatively, referred to as counts per minute (cpm).
Where dpm=disintegrations per minute, cmpd=signal in assay well, and min and max are the respective minimum and maximum signal controls.
Where top and bottom are the normally allowed to float, but may be fixed at 100 or 0 respectively in a 3-parameter fit. The Hill Coefficient normally allowed to float but may also be fixed at 1 in a 3-parameter fit. Y is the % inhibition and X is the compound concentration.

[1] = RKO cells, 72 hours, mono-methyl arginine, class symbols, Table 3, read-out: In Cell Western data EC30
[2] = RKO cells, 72 hours, mono-methyl arginine, single experiment or average of multiple experiments, Table 3a, read-out: In Cell Western data (Numerical, μM) EC30
[3] = RKO, 72 h, read-out: In Cell Western data (Numerical, μM) EC30
[4] = RKO, 72 h, read-out: In Cell Western data EC30

T1 sequence (Q99873 with tags, fused parts or gaps): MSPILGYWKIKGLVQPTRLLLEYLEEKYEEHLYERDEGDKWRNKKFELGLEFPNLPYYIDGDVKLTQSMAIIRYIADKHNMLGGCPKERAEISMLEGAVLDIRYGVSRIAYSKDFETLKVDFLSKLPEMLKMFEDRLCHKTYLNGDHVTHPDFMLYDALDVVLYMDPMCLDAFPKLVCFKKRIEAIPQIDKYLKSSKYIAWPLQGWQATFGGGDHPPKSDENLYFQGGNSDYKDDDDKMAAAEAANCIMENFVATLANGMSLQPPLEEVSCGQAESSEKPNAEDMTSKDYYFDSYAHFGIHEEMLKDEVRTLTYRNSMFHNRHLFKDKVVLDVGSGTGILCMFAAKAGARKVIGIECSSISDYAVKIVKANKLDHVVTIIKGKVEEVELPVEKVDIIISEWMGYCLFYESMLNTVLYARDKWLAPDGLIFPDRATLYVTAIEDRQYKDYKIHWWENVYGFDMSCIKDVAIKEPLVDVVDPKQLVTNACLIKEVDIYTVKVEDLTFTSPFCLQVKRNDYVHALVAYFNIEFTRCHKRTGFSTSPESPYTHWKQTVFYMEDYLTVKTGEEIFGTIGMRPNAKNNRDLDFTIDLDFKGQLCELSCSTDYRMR

CNCCN(C)Cc1c[nH]nc1-c1cc(OCCCC(C)=O)cc(C(F)(F)F)c1 [Compound 49]
EC30 (RKO cells; [1]): 3.01 to 12 µM | EC30 (RKO cells; [2]): 3.36 µM | IC50 (PRMT1): 0.0366 µM

CC(C)Oc1cc(-c2n[nH]cc2CN(C)CCN)cc(C(F)(F)F)c1 [Compound 6]
EC30 (RKO cells; [3]): 10.8 µM | EC30 (RKO cells; [4]): 3.01 to 12 µM | IC50 (PRMT1): 0.0687 µM

CNCCN(C)Cc1c[nH]nc1-c1ccc(CC(C)C)c(C(F)(F)F)c1 [Compound 34]
EC30 (RKO cells; [3]): 0.955 µM | EC30 (RKO cells; [4]): < 3 µM | IC50 (PRMT1): 0.00444 µM

CNCCN(C)Cc1c[nH]nc1-c1cc(Oc2ccccc2)cc(C(F)(F)F)c1 [Compound 36]
EC30 (RKO cells; [1]): < 3 µM | EC30 (RKO cells; [2]): 2.18 µM | IC50 (PRMT1): 0.0123 µM

CNCCN(C)Cc1c[nH]nc1-c1ccc(OCCCOC)c(C(F)(F)F)c1 [Compound 13]
EC30 (RKO cells; [3]): 0.567 µM | EC30 (RKO cells; [4]): < 3 µM | IC50 (PRMT1): 0.0108 µM

CNCCN(C)Cc1n[nH]cc1-c1ccc(OCC(C)C)c(C(F)(F)F)c1 [Compound 18]
EC30 (RKO cells; [1]): < 3 µM | EC30 (RKO cells; [2]): 2.69 µM | IC50 (PRMT1): 0.00988 µM

CNCCN(C)Cc1c[nH]nc1-c1ccc(OCCOC)c(C(F)(F)F)c1 [Compound 14]
EC30 (RKO cells; [3]): 0.383 µM | EC30 (RKO cells; [4]): < 3 µM | IC50 (PRMT1): 0.00554 µM

CNCCN(C)Cc1c[nH]nc1-c1cc(C)c(OC2COC2)c(C(F)(F)F)c1 [Compound 66]
EC30 (RKO cells; [3]): 0.724 µM | EC30 (RKO cells; [4]): < 3 µM | IC50 (PRMT1): 0.00756 µM

CNCCN(C)Cc1c[nH]nc1-c1cc(OCCOC)c(F)c(C(F)(F)F)c1 [Compound 64]
EC30 (RKO cells; [3]): 13.2 µM | EC30 (RKO cells; [4]): > 12 µM | IC50 (PRMT1): 0.104 µM

CNCCN(C)Cc1c[nH]nc1-c1ccc(OCC(C)C)c(C(F)(F)F)c1 [Compound 10]
EC30 (RKO cells; [3]): 0.537 µM | EC30 (RKO cells; [4]): < 3 µM | IC50 (PRMT1): 0.00451 µM

CNCCN(C)Cc1c[nH]nc1-c1cc(C)c(OC2CCOCC2)c(C(F)(F)F)c1 [Compound 59]
EC30 (RKO cells; [3]): 1.37 µM | EC30 (RKO cells; [4]): < 3 µM | IC50 (PRMT1): 0.0316 µM

CNCCN(C)Cc1c[nH]nc1-c1cc(Cl)c(OCC2CC2)c(C(F)(F)F)c1 [Compound 41]
EC30 (RKO cells; [3]): 2.39 µM | EC30 (RKO cells; [4]): < 3 µM | IC50 (PRMT1): 0.00636 µM

CNCCN(C)Cc1c[nH]nc1-c1cc(Oc2cccnc2)cc(C(F)(F)F)c1 [Compound 51]
EC30 (RKO cells; [1]): 3.01 to 12 µM | EC30 (RKO cells; [2]): 6.9 µM | IC50 (PRMT1): 0.0513 µM

CCCOc1ccc(-c2n[nH]cc2CN(C)CCNC)cc1C(F)(F)F [Compound 11]
EC30 (RKO cells; [3]): 0.558 µM | EC30 (RKO cells; [4]): < 3 µM | IC50 (PRMT1): 0.00462 µM

CNCCN(C)Cc1c[nH]nc1-c1cc(Oc2ccccn2)cc(C(F)(F)F)c1 [Compound 52]
EC30 (RKO cells; [1]): 3.01 to 12 µM | EC30 (RKO cells; [2]): 4.44 µM | IC50 (PRMT1): 0.0359 µM

CCCOc1cc(-c2n[nH]cc2CN(C)CCNC)cc(C(F)(F)F)c1 [Compound 19]
EC30 (RKO cells; [1]): 3.01 to 12 µM | EC30 (RKO cells; [2]): 5.07 µM | IC50 (PRMT1): 0.0275 µM

CCC(CC)Oc1cc(-c2n[nH]cc2CN(C)CCNC)cc(C(F)(F)F)c1 [Compound 47]
EC30 (RKO cells; [1]): < 3 µM | EC30 (RKO cells; [2]): 2.67 µM | IC50 (PRMT1): 0.0135 µM

CN(CCN)Cc1c[nH]nc1-c1ccc(Oc2ccccc2)c(C(F)(F)F)c1 [Compound 23]
EC30 (RKO cells; [3]): 1.51 µM | EC30 (RKO cells; [4]): < 3 µM | IC50 (PRMT1): 0.00301 µM

CNCCN(C)Cc1c[nH]nc1-c1cc(OCC2CCOCC2)cc(C(F)(F)F)c1 [Compound 46]
EC30 (RKO cells; [3]): 2.62 µM | EC30 (RKO cells; [4]): < 3 µM | IC50 (PRMT1): 0.0282 µM

CNCCN(C)Cc1c[nH]nc1-c1cc(OCCC(C)C)cc(C(F)(F)F)c1 [Compound 12]
EC30 (RKO cells; [1]): < 3 µM | EC30 (RKO cells; [2]): 1.44 µM | IC50 (PRMT1): 0.00704 µM
